Experimental data from ChEMBL document CHEMBL1201862, “PubChem BioAssay data set” (2004).
Counter-ions that a name gives are not always drawn.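 Following 48 hours of exposure in 96-well plates, responses at five concentrations were used to interpolate endpoints linearly. Abbreviation: GI50, concentration required for 50% inhibition of growth.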 Calls of active or inactive are those of the source. Rule as the data show it: active = GI50 up to about 1.1 µM and inactive = higher.

What was measured:
Assay in all cases: NCI anticancer screen, dose series, 48 h
HCT-15 = test system: HCT-15
Hs-578T = test system: Hs-578T
DU-145 = test system: DU-145
SN12C = test system: SN12C
CAKI-1 = test system: CAKI-1
RPMI-8226 = test system: RPMI-8226
A498 = test system: A498
UACC-62 = test system: UACC-62
SF-268 = test system: SF-268
TK-10 = test system: TK-10
SW-620 = test system: SW-620
CCRF-CEM = test system: CCRF-CEM
NCI-H460 = test system: NCI-H460
SF-539 = test system: SF-539
EKVX = test system: EKVX
M14 = test system: M14
RXF 393 = test system: RXF 393
SF-295 = test system: SF-295
BT-549 = test system: BT-549

| Compound | GI50 (HCT-15) | GI50 (Hs-578T) | GI50 (DU-145) | GI50 (SN12C) | GI50 (CAKI-1) | GI50 (RPMI-8226) | GI50 (A498) | GI50 (UACC-62) | GI50 (SF-268) | GI50 (TK-10) | GI50 (SW-620) | GI50 (CCRF-CEM) | GI50 (NCI-H460) | GI50 (SF-539) | GI50 (EKVX) | GI50 (M14) | GI50 (RXF 393) | GI50 (SF-295) | GI50 (BT-549) |
| --- | --- | --- | --- | --- | --- | --- | --- | --- | --- | --- | --- | --- | --- | --- | --- | --- | --- | --- | --- |
| N#Cc1c(=O)c2ccccc2n2ccccc12 | > 100 µM | > 100 µM (inactive) | > 100 µM (inactive) | > 100 µM (inactive) | > 100 µM (inactive) | > 100 µM (inactive) | > 100 µM (inactive) | > 100 µM (inactive) | > 100 µM (inactive) | > 100 µM (inactive) | 79.8 µM (inactive) | > 100 µM (inactive) | > 100 µM (inactive) | – | – | – | – | – | – |
| Cc1nc2ccc([N+](=O)[O-])cc2c(=O)n1C(=S)Nc1cccc(Cl)c1 | 12.9 µM | 21.5 µM (inactive) | 28.4 µM (inactive) | 20 µM (inactive) | 18.1 µM (inactive) | 4.06 µM (inactive) | 9.4 µM (inactive) | 12.5 µM (inactive) | 16.8 µM (inactive) | 23.8 µM (inactive) | 22 µM (inactive) | 12.9 µM (inactive) | 14.9 µM (inactive) | 19.5 µM (inactive) | 18.7 µM (inactive) | 21.9 µM (inactive) | 13.9 µM (inactive) | 18.3 µM (inactive) | – |
| COC(=O)CCc1ccc2c(c1)CC1(C2)Cc2ccc3c(c2C1)CCC3 (stereo not given) | 59.2 µM | 99.1 µM (inactive) | 70 µM (inactive) | 80 µM (inactive) | – | 31.3 µM (inactive) | > 100 µM (inactive) | 23.6 µM (inactive) | > 100 µM (inactive) | > 100 µM (inactive) | > 100 µM (inactive) | 61.7 µM (inactive) | > 100 µM (inactive) | > 100 µM (inactive) | > 100 µM (inactive) | 59.2 µM (inactive) | 49.1 µM (inactive) | > 100 µM (inactive) | – |
| S=c1oc(CCCCCCCCc2nn(CNc3ccccc3)c(=S)o2)nn1CNc1ccccc1 | > 100 µM | – | > 100 µM (inactive) | > 100 µM (inactive) | > 100 µM (inactive) | > 100 µM (inactive) | > 100 µM (inactive) | > 100 µM (inactive) | > 100 µM (inactive) | > 100 µM (inactive) | > 100 µM (inactive) | – | > 100 µM (inactive) | – | > 100 µM (inactive) | > 100 µM (inactive) | – | > 100 µM (inactive) | > 100 µM (inactive) |
| Cc1cc2nc3c(C#N)c(-c4ccccc4)cc(Nc4cccc(C(F)(F)F)c4)n3c2cc1C | 4.73 µM | – | – | 3.68 µM (inactive) | 4.85 µM (inactive) | 1.61 µM (inactive) | 6.05 µM (inactive) | – | 6.97 µM (inactive) | 7.69 µM (inactive) | 3.74 µM (inactive) | 3.6 µM (inactive) | 3.33 µM (inactive) | 3.78 µM (inactive) | 4.68 µM (inactive) | 4.78 µM (inactive) | 5.48 µM (inactive) | 7.19 µM (inactive) | 10.5 µM (inactive) |
| Nn1c(CCCCCCCCc2nnc(COc3ccc(Cl)cc3)n2N)nnc1COc1ccc(Cl)cc1 | > 100 µM | – | > 100 µM (inactive) | > 100 µM (inactive) | 16.9 µM (inactive) | > 100 µM (inactive) | 95.1 µM (inactive) | > 100 µM (inactive) | > 100 µM (inactive) | 78 µM (inactive) | > 100 µM (inactive) | – | > 100 µM (inactive) | – | > 100 µM (inactive) | > 100 µM (inactive) | > 100 µM (inactive) | > 100 µM (inactive) | > 100 µM (inactive) |
| NCCc1cc(O)c(O)cc1O [OXIDOPAMINE HYDROCHLORIDE] | 17.1 µM | – | 17.7 µM (inactive) | 25.3 µM (inactive) | 18.6 µM (inactive) | 3.19 µM (inactive) | > 100 µM (inactive) | 31.2 µM (inactive) | 21.8 µM (inactive) | 62.5 µM (inactive) | 21 µM (inactive) | 3.97 µM (inactive) | 29.2 µM (inactive) | 19.2 µM (inactive) | 26.6 µM (inactive) | 20 µM (inactive) | 51.4 µM (inactive) | 24 µM (inactive) | 16.6 µM (inactive) |
| CC(=O)[C@@H]1C/C(=C\OCc2ccccc2)O[C@H]1C | > 100 µM | – | > 100 µM (inactive) | > 100 µM (inactive) | > 100 µM (inactive) | > 100 µM (inactive) | > 100 µM (inactive) | – | > 100 µM (inactive) | > 100 µM (inactive) | > 100 µM (inactive) | – | > 100 µM (inactive) | > 100 µM (inactive) | > 100 µM (inactive) | > 100 µM (inactive) | > 100 µM (inactive) | > 100 µM (inactive) | > 100 µM (inactive) |
| Cc1ccc(-c2c(C#N)c(-c3ccccc3)n(NS(=O)(=O)c3ccc(C)cc3)c(=O)c2C#N)cc1 | 36.4 µM | – | – | 82.6 µM (inactive) | 71.1 µM (inactive) | 8.36 µM (inactive) | 52.8 µM (inactive) | 43.8 µM (inactive) | 90.8 µM (inactive) | 55.3 µM (inactive) | 40.6 µM (inactive) | 23 µM (inactive) | 34.3 µM (inactive) | 34 µM (inactive) | 89.9 µM (inactive) | 74.1 µM (inactive) | 51.5 µM (inactive) | 41.3 µM (inactive) | 22.9 µM (inactive) |
| COC(=O)c1cc2c(cc1CC1Cc3cc4c(cc3C1)CCC4)CCC2 | 59.2 µM | 66.8 µM (inactive) | 84.7 µM (inactive) | 79.1 µM (inactive) | 90.6 µM (inactive) | 21.8 µM (inactive) | > 100 µM (inactive) | – | 56.9 µM (inactive) | > 100 µM (inactive) | > 100 µM (inactive) | 16.9 µM (inactive) | 51.1 µM (inactive) | 79.4 µM (inactive) | 52.6 µM (inactive) | 63.8 µM (inactive) | 34 µM (inactive) | 55 µM (inactive) | – |
| Cc1cc(C)nc(NS(=O)(=O)c2ccc(Nc3c4ccccc4nc4c(C(=O)Nc5ccc(S(=O)(=O)N=C(N)N)cc5)cccc34)cc2)n1 | > 100 µM | – | – | > 100 µM (inactive) | > 100 µM (inactive) | > 100 µM (inactive) | > 100 µM (inactive) | > 100 µM (inactive) | > 100 µM (inactive) | > 100 µM (inactive) | > 100 µM (inactive) | > 100 µM (inactive) | > 100 µM (inactive) | > 100 µM (inactive) | > 100 µM (inactive) | 90.4 µM (inactive) | 24.4 µM (inactive) | – | – |
| [N-]=[N+]=NC1CC(n2ccc(N)nc2=O)OC1COP(=O)(O)OP(=O)(O)OP(=O)(O)O (stereo not given) | > 100 µM | > 100 µM (inactive) | > 100 µM (inactive) | > 100 µM (inactive) | > 100 µM (inactive) | > 100 µM (inactive) | – | > 100 µM (inactive) | > 100 µM (inactive) | – | > 100 µM (inactive) | > 100 µM (inactive) | > 100 µM (inactive) | > 100 µM (inactive) | > 100 µM (inactive) | > 100 µM (inactive) | > 100 µM (inactive) | > 100 µM (inactive) | – |
| COc1ccc(/C=N\N2C(=O)Cc3ccccc32)cc1 | > 100 µM | – | – | – | > 100 µM (inactive) | > 100 µM (inactive) | > 100 µM (inactive) | > 100 µM (inactive) | 74.3 µM (inactive) | 59.6 µM (inactive) | > 100 µM (inactive) | > 100 µM (inactive) | > 100 µM (inactive) | 39 µM (inactive) | > 100 µM (inactive) | 86.1 µM (inactive) | – | 51.6 µM (inactive) | – |
| Nc1nc(Cl)c2nnn(CC3CCC(CO)C3)c2n1 (stereo not given) | > 100 µM | > 100 µM (inactive) | > 100 µM (inactive) | > 100 µM (inactive) | > 100 µM (inactive) | > 100 µM (inactive) | > 100 µM (inactive) | > 100 µM (inactive) | > 100 µM (inactive) | > 100 µM (inactive) | > 100 µM (inactive) | > 100 µM (inactive) | – | > 100 µM (inactive) | > 100 µM (inactive) | > 100 µM (inactive) | > 100 µM (inactive) | > 100 µM (inactive) | – |
| O=C1NN(c2ccccc2)C(=O)C2C3c4ccccc4C(c4ccccc43)C12 (stereo not given) | 89.1 µM | 83.2 µM (inactive) | > 100 µM (inactive) | 77.1 µM (inactive) | > 100 µM (inactive) | > 100 µM (inactive) | 32.2 µM (inactive) | > 100 µM (inactive) | > 100 µM (inactive) | > 100 µM (inactive) | > 100 µM (inactive) | 22.5 µM (inactive) | > 100 µM (inactive) | > 100 µM (inactive) | > 100 µM (inactive) | > 100 µM (inactive) | 41.1 µM (inactive) | 80 µM (inactive) | – |
| c1ccc(SC2(Sc3ccccc3)CCCC2)cc1 | > 100 µM | – | – | > 100 µM (inactive) | > 100 µM (inactive) | > 100 µM (inactive) | > 100 µM (inactive) | > 100 µM (inactive) | > 100 µM (inactive) | > 100 µM (inactive) | > 100 µM (inactive) | > 100 µM (inactive) | > 100 µM (inactive) | > 100 µM (inactive) | > 100 µM (inactive) | > 100 µM (inactive) | > 100 µM (inactive) | > 100 µM (inactive) | – |
| CCOC(=O)C1C/C(C)=C(/C)SCCCS1 (stereo not given) | > 100 µM | > 100 µM (inactive) | > 100 µM (inactive) | > 100 µM (inactive) | – | 58.6 µM (inactive) | > 100 µM (inactive) | > 100 µM (inactive) | > 100 µM (inactive) | > 100 µM (inactive) | > 100 µM (inactive) | – | > 100 µM (inactive) | > 100 µM (inactive) | > 100 µM (inactive) | > 100 µM (inactive) | > 100 µM (inactive) | > 100 µM (inactive) | – |
